# Measured values as given in ChEMBL document CHEMBL1149774, “Synthesis of N-(5,7-diamino-3-phenyl-quinoxalin-2-yl)-3,4,5-substituted anilines and N-[4[(5,7-diamino-3-phenylquinoxalin-2-yl)amino]benzoyl]-l-glutamic acid diethyl ester: evaluation of in vitro anti-cancer and anti-folate activities” (Eur J Med Chem, 2008).
# The source made the active and inactive calls. No cut-off for these calls is given here.
# Key:
# [1] = system: NCI-H322M; experiment: Growth inhibition of human NCI-H322M cells after 48 hrs by SRB staining method; type: functional; conditions: for TGI: read-out: pTGI (converted)
# [2] = system: NCI-H460; experiment: Growth inhibition of human NCI-H460 cells after 48 hrs by SRB staining method; type: functional; conditions: NCI-H460, 48 h; for TGI: read-out: pTGI (converted)
# [3] = system: COLO 205; experiment: Growth inhibition of human COLO205 cells after 48 hrs by SRB staining method; type: functional; conditions: COLO 205, 48 h; for TGI: read-out: pTGI (converted)
# [4] = system: HCC 2998; experiment: Growth inhibition of human HCC2998 cells after 48 hrs by SRB staining method; type: functional; conditions: HCC 2998, 48 h
# [5] = system: KM12; experiment: Growth inhibition of human KM12 cells after 48 hrs by SRB staining method; type: functional; conditions: KM12, 48 h; for TGI: read-out: pTGI (converted)
# [6] = system: SF-539; experiment: Growth inhibition of human SF539 cells after 48 hrs by SRB staining method; type: functional; conditions: SF-539, 48 h; for TGI: read-out: pTGI (converted)
# [7] = system: LOX IMVI; experiment: Growth inhibition of human LOX IMVI cells after 48 hrs by SRB staining method; type: functional; conditions: for TGI: read-out: pTGI (converted)
# [8] = system: Malme-3M; experiment: Growth inhibition of human MALME-3M cells after 48 hrs by SRB staining method; type: functional
# [9] = system: M14; experiment: Growth inhibition of human M14 cells after 48 hrs by SRB staining method; type: functional; conditions: M14, 48 h; for TGI: read-out: pTGI (converted)
# [10] = system: SK-MEL-28; experiment: Growth inhibition of human SK-MEL-28 cells after 48 hrs by SRB staining method; type: functional; conditions: SK-MEL-28, 48 h; for CC50: read-out: pLC50 (the source's name) (converted); for TGI: read-out: pTGI (converted)
# [11] = system: SK-MEL-5; experiment: Growth inhibition of human SK-MEL-5 cells after 48 hrs by SRB staining method; type: functional; conditions: SK-MEL-5, 48 h; for TGI: read-out: pTGI (converted)
# [12] = system: UACC-257; experiment: Growth inhibition of human UACC257 cells after 48 hrs by SRB staining method; type: functional; conditions: UACC-257, 48 h; for TGI: read-out: pTGI (converted)
# [13] = system: OVCAR-8; experiment: Growth inhibition of human OVCAR8 cells after 48 hrs by SRB staining method; type: functional; conditions: OVCAR-8, 48 h; for CC50: read-out: pLC50 (the source's name) (converted); for TGI: read-out: pTGI (converted)
# [14] = system: SK-OV-3; experiment: Growth inhibition of human SKOV3 cells after 48 hrs by SRB staining method; type: functional; conditions: SK-OV-3, 48 h; for CC50: read-out: pLC50 (the source's name) (converted); for TGI: read-out: pTGI (converted)
# [15] = system: A498; experiment: Growth inhibition of human A498 cells after 48 hrs by SRB staining method; type: functional; conditions: A498, 48 h; for CC50: read-out: pLC50 (the source's name) (converted); for TGI: read-out: pTGI (converted)
# [16] = system: MCF7; experiment: Growth inhibition of human MCF7 cells after 48 hrs by SRB staining method; type: functional; conditions: MCF7, 48 h; for CC50: read-out: pLC50 (the source's name) (converted); for TGI: read-out: pTGI (converted)
# [17] = system: MDA-MB-231; experiment: Growth inhibition of human MDA-MB-231 cells after 48 hrs by SRB staining method; type: functional; conditions: MDA-MB-231, 48 h; for CC50: read-out: pLC50 (the source's name) (converted); for TGI: read-out: pTGI (converted)
# [18] = system: MDA-MB-435; experiment: Growth inhibition of human MDA-MB-435 cells after 48 hrs by SRB staining method; type: functional; conditions: MDA-MB-435, 48 h; for CC50: read-out: pLC50 (the source's name) (converted); for TGI: read-out: pTGI (converted)
# [19] = system: BT-549; experiment: Growth inhibition of human BT549 cells after 48 hrs by SRB staining method; type: functional; conditions: BT-549, 48 h; for CC50: read-out: pLC50 (the source's name) (converted); for TGI: read-out: pTGI (converted)
# [20] = target: T1, Dihydrofolate reductase (Homo sapiens) (UniProt P00374); experiment: Inhibition of human dihydrofolate reductase at 10 uM
# T1 sequence (whole entry): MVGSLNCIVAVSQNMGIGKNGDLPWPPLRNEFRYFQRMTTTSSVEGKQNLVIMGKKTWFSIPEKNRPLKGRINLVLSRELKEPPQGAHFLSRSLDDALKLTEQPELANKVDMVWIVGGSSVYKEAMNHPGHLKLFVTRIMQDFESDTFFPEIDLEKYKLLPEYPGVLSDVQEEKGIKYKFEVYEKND
# [21] = system: A549; experiment: Growth inhibition of human A549 cells after 48 hrs by SRB staining method; type: functional; conditions: A549, 48 h; for CC50: read-out: pLC50 (the source's name) (converted); for TGI: read-out: pTGI (converted)
# [22] = system: SR; experiment: Growth inhibition of human SR cells after 48 hrs by SRB staining method; type: functional
# [23] = system: MOLT-4; experiment: Growth inhibition of human MOLT4 cells after 48 hrs by SRB staining method; type: functional; conditions: MOLT-4, 48 h; for CC50: read-out: pLC50 (the source's name) (converted); for TGI: read-out: pTGI (converted)
# [24] = target: T2, Thymidylate synthase (Lactobacillus casei, UniProt P00469)
# T2 sequence (P00469 whole entry): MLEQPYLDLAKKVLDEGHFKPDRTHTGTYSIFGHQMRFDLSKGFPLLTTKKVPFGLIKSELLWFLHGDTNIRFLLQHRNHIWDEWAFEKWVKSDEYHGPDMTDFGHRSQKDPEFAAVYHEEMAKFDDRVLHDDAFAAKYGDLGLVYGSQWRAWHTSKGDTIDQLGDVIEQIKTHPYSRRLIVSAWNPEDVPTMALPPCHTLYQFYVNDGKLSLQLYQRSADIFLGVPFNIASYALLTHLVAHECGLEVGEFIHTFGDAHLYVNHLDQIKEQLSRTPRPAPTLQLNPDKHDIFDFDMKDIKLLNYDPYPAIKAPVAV
# Description: Inhibition of Lactobacillus casei thymidylate synthase
# [25] = system: HOP-92; experiment: Growth inhibition of human HOP92 cells after 48 hrs by SRB staining method; type: functional; conditions: HOP-92, 48 h
# [26] = system: SNB-75; experiment: Growth inhibition of human SNB75 cells after 48 hrs by SRB staining method; type: functional; conditions: SNB-75, 48 h
smiles,measurement,setting,value
COc1ccc(Nc2nc3cc(N)cc(N)c3nc2-c2ccccc2)cc1OC,GI50,[1],> 100 µM
same,LC50,[1],> 100 µM
same,TGI,[1],25.1 µM
same,GI50,[2],20.4 µM
same,LC50 (concentration killing 50% of cells),[2],> 100 µM
same,TGI,[2],> 100 µM
same,GI50,[3],20 µM
same,LC50,[3],85.1 µM
same,TGI,[3],40.7 µM
same,GI50,[4],18.2 µM
same,LC50,[4],85.1 µM
same,TGI,[4]; read-out: pTGI (converted),39.8 µM
same,GI50,[5],14.8 µM
same,LC50,[5],69.2 µM
same,TGI,[5],32.4 µM
same,GI50,[6],16.2 µM
same,LC50,[6],87.1 µM
same,TGI,[6],37.2 µM
same,GI50,[7],25.7 µM
same,LC50,[7],> 100 µM
same,TGI,[7],72.4 µM
same,GI50,[8],15.8 µM
same,LC50,[8],81.3 µM
same,TGI,[8]; read-out: pTGI (converted),35.5 µM
same,GI50,[9],20.9 µM
same,LC50,[9],> 100 µM
same,TGI,[9],69.2 µM
same,GI50,[10],21.4 µM
same,CC50,[10],> 100 µM
same,TGI,[10],50.1 µM
same,GI50,[11],12.3 µM
same,LC50,[11],53.7 µM
same,TGI,[11],25.7 µM
same,GI50,[12],35.5 µM
same,LC50,[12],> 100 µM
same,TGI,[12],> 100 µM
same,GI50,[13],33.9 µM
same,CC50,[13],> 100 µM
same,TGI,[13],> 100 µM
same,GI50,[14],38 µM
same,CC50,[14],> 100 µM
same,TGI,[14],87.1 µM
same,GI50,[15],11.7 µM
same,CC50,[15],> 100 µM
same,TGI,[15],56.2 µM
same,GI50,[16],20.4 µM
same,CC50,[16],97.7 µM
same,TGI,[16],44.7 µM
same,GI50,[17],4.9 µM
same,CC50,[17],46.8 µM
same,TGI,[17],18.6 µM
same,GI50,[18],16.2 µM
same,CC50,[18],63.1 µM
same,TGI,[18],32.4 µM
same,GI50,[19],25.7 µM
same,CC50,[19],> 100 µM
same,TGI,[19],81.3 µM
same,Activity,[20],inactive
same,GI50,[21],35.5 µM
same,CC50,[21],> 100 µM
same,TGI,[21],> 100 µM
same,GI50,[22],2.69 µM
same,CC50,[22]; read-out: pLC50 (the source's name) (converted),> 100 µM
same,TGI,[22]; read-out: pTGI (converted),21.9 µM
same,GI50,[23],6.92 µM
same,CC50,[23],> 100 µM
same,TGI,[23],> 100 µM
same,Ki,[24],6 µM
Nc1cc(N)c2nc(-c3ccccc3)c(Nc3ccc(F)cc3)nc2c1,GI50,[25],13.2 µM
same,TGI,[25]; read-out: pTGI (converted),43.7 µM
same,GI50,[1],17 µM
same,TGI,[1],35.5 µM
same,GI50,[2],26.3 µM
same,TGI,[2],> 100 µM
same,GI50,[3],20.4 µM
same,TGI,[3],56.2 µM
same,GI50,[5],12 µM
same,TGI,[5],29.5 µM
same,GI50,[6],11 µM
same,TGI,[6],24.5 µM
same,GI50,[26],20.9 µM
same,TGI,[26]; read-out: pTGI (converted),41.7 µM
same,GI50,[7],4.79 µM
same,TGI,[7],18.2 µM
same,GI50,[9],16.2 µM
same,TGI,[9],43.7 µM
same,GI50,[10],20.4 µM
same,CC50,[10],75.9 µM
same,TGI,[10],38.9 µM
same,GI50,[11],14.5 µM
same,TGI,[11],33.1 µM
same,GI50,[12],15.1 µM
same,TGI,[12],28.8 µM
same,GI50,[13],12.3 µM
same,CC50,[13],74.1 µM
same,TGI,[13],30.2 µM
same,GI50,[14],40.7 µM
same,CC50,[14],> 100 µM
same,TGI,[14],> 100 µM
same,GI50,[15],17.4 µM
same,CC50,[15],66.1 µM
same,TGI,[15],20 µM
same,GI50,[16],12.6 µM
same,CC50,[16],> 100 µM
same,TGI,[16],> 100 µM
same,GI50,[17],11 µM
same,CC50,[17],85.1 µM
same,TGI,[17],30.2 µM
same,GI50,[18],7.41 µM
same,CC50,[18],50.1 µM
same,TGI,[18],20.9 µM
same,GI50,[19],12 µM
same,CC50,[19],63.1 µM
same,TGI,[19],26.9 µM
same,Activity,[20],inactive
same,GI50,[21],17.4 µM
same,CC50,[21],> 100 µM
same,TGI,[21],44.7 µM
same,GI50,[22],5.37 µM
same,GI50,[23],> 100 µM
same,CC50,[23],> 100 µM
same,TGI,[23],> 100 µM
same,Ki,[24],3 µM
